Source: US20140023611A1 (priority 2010, published 2014)

biological target: T1, rat NaP2b (SLC34A2) (Rattus norvegicus, UniProt Q9JJ09); assay: Inhibition of NaP2b-mediated Pi (33P) uptake in transfected HEK293 cells, rat NaP2b; type: cell-based; details: 33P Pi uptake, 0.1 mM phosphate, value given as pIC50 range
T1 construct: host or cells: HEK293
T1 sequence (Q9JJ09 1-695): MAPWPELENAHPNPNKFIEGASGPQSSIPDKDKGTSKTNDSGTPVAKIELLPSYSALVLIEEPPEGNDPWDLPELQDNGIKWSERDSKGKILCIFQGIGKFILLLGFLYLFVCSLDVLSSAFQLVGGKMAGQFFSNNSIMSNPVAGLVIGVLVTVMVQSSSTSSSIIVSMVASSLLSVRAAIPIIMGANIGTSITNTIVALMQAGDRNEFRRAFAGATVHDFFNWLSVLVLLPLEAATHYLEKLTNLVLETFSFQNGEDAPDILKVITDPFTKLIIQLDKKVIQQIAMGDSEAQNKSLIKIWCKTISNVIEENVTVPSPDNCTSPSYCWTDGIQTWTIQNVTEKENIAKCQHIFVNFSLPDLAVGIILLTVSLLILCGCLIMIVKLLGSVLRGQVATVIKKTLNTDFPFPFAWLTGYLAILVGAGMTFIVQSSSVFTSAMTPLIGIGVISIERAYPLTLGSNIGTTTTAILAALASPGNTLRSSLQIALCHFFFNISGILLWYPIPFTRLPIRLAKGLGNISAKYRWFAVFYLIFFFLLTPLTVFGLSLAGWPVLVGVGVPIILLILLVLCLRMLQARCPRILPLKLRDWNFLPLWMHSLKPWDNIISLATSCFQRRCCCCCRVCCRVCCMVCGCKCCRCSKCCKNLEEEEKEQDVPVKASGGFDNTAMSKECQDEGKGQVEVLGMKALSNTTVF
Procedure, shortened: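 The cells transiently expressed NaP2b after Lipofectamine transfection. Each compound was run in duplicate over twelve concentrations, 0.1 nM–30 uM.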

Q: How did the IC50 turn out when `O=C(O)c1cccc(CSCc2cccc(C(=O)Nc3ccc(N4CCCCC4)cc3-c3cc(C(=O)NCc4cccc(C(F)(F)F)c4)ccn3)c2)c1` [Example 9.3, 3-(((3-((4-(Piperidin-1-yl)-2-(4-((3-(trifluoromethyl)benzyl)carbamoyl)pyridin-2-yl)phenyl)carbamoyl)benzyl)thio)methyl)benzoic acid] was run?
A: 1 to 7.94 µM

Q: With `CN1CCC(N(C)C(=O)c2cccc(SCc3cccc(C(=O)Nc4ccc(N5CCCCC5)cc4-c4cc(C(=O)NCc5cccc(C(F)(F)F)c5)ccn4)c3)c2)CC1` [Example 10.2] as the molecule, how does the IC50 read?
A: 10 to 31.6 µM

Q: Which IC50 does the source give for `CN1CCN(C(=O)c2cccc(SCc3cccc(C(=O)Nc4ccc(N5CCCCC5)cc4-c4cc(C(=O)NCc5cccc(C(F)(F)F)c5)ccn4)c3)c2)CC1` [Example 10.3] here?
A: 10 to 31.6 µM

Q: For `CN1CCC(NC(=O)c2cccc(SCc3cccc(C(=O)Nc4ccc(N5CCCCC5)cc4-c4cc(C(=O)NCc5cccc(C(F)(F)F)c5)ccn4)c3)c2)CC1` [Example 10.4], which IC50 is on record?
A: 10 to 31.6 µM

Q: `COCCNC(=O)c1cccc(SCc2cccc(C(=O)Nc3ccc(N4CCCCC4)cc3-c3cc(C(=O)NCc4cccc(C(F)(F)F)c4)ccn3)c2)c1` [Example 10.5] was tested. Which IC50 did it give?
A: 10 to 31.6 µM

Q: `O=C(NCCN1CCOCC1)c1cccc(SCc2cccc(C(=O)Nc3ccc(N4CCCCC4)cc3-c3cc(C(=O)NCc4cccc(C(F)(F)F)c4)ccn3)c2)c1` [Example 10.6] was tested. Which IC50 did it give?
A: 1 to 7.94 µM

Q: Which IC50 does the source give for `CN(CCN1CCOCC1)C(=O)c1cccc(SCc2cccc(C(=O)Nc3ccc(N4CCCCC4)cc3-c3cc(C(=O)NCc4cccc(C(F)(F)F)c4)ccn3)c2)c1` [Example 10.7] here?
A: 1 to 7.94 µM

Q: Which IC50 does the source give for `CCN(CC)CCN(C)C(=O)c1cccc(SCc2cccc(C(=O)Nc3ccc(N4CCCCC4)cc3-c3cc(C(=O)NCc4cccc(C(F)(F)F)c4)ccn3)c2)c1` [Example 10.8] here?
A: 10 to 31.6 µM

Q: For `CN(CCN1CCOCC1)C(=O)c1cccc(C(=O)Nc2ccc(N3CCCCC3)cc2-c2cc(C(=O)NCc3cccc(C(F)(F)F)c3)ccn2)n1` [Example 11.1, N2-Methyl-N2-(2-morpholinoethyl)-N6-(4-(piperidin-1-yl)-2-(4-((3-(trifluoromethyl)benzyl)carbamoyl)pyridin-2-yl)phenyl)pyridine-2,6-dicarboxamide], which IC50 is on record?
A: 1 to 7.94 µM

Q: `Cc1cc(C(=O)Nc2ccc(N3CCCCC3)cc2-c2cc(C(=O)NCc3cccc(C(F)(F)F)c3)ccn2)cc(C(=O)N(C)CCN2CCOCC2)c1` [Example 11.2, N1,5-Dimethyl-N1-(2-morpholinoethyl)-N3-(4-(piperidin-1-yl)-2-(4-((3-(trifluoromethyl)benzyl)carbamoyl)pyridin-2-yl)phenyl)isophthalamide] was tested. Which IC50 did it give?
A: 1 to 7.94 µM

Q: Which IC50 does the source give for `COc1c(C(=O)Nc2ccc(N3CCCCC3)cc2-c2cc(C(=O)NCc3cccc(C(F)(F)F)c3)ccn2)cccc1C(=O)N(C)CCN1CCOCC1` [Example 11.3, 2-Methoxy-N1-methyl-N1-(2-morpholinoethyl)-N3-(4-(piperidin-1-yl)-2-(4-((3-(trifluoromethyl)benzyl)carbamoyl)pyridin-2-yl)phenyl)isophthalamide] here?
A: 10 to 31.6 µM

Q: Which IC50 does the source give for `COc1cc(C(=O)Nc2ccc(N3CCCCC3)cc2-c2cc(C(=O)NCc3cccc(C(F)(F)F)c3)ccn2)cc(C(=O)N(C)CCN2CCOCC2)c1` [Example 11.4, 5-Methoxy-N1-methyl-N1-(2-morpholinoethyl)-N3-(4-(piperidin-1-yl)-2-(4-((3-(trifluoromethyl)benzyl)carbamoyl)pyridin-2-yl)phenyl)isophthalamide] here?
A: 10 to 31.6 µM

Q: With `CN(CCN1CCN(C(=O)OC(C)(C)C)CC1)Cc1cccc(C(=O)Nc2ccc(N3CCCCC3)cc2-c2cc(C(=O)NCc3cccc(C(F)(F)F)c3)ccn2)c1` [Example 38, Tert-butyl 4-(2-(methyl(3-((4-(piperidin-1-yl)-2-(4-((3-(trifluoromethyl)benzyl)-carbamoyl)pyridin-2-yl)phenyl)carbamoyl)benzyl)amino)ethyl)piperazine-1-carboxylate] as the molecule, how does the IC50 read?
A: 10 to 31.6 µM

Q: Which IC50 does the source give for `CN(Cc1cccc(C(=O)Nc2ccc(N3CCCCC3)cc2-c2cc(C(=O)NCc3cccc(C(F)(F)F)c3)ccn2)c1)C(=O)CN1CCOCC1` [Example 42, 2-(2-(3-((N-Methyl-2-morpholinoacetamido)methyl)benzamido)-5-(piperidin-1-yl)phenyl)-N-(3-(trifluoromethyl)benzyl)isonicotinamide] here?
A: 10 to 31.6 µM

Q: `CN(CCOCCOCCOCCC(=O)O)Cc1cccc(C(=O)Nc2ccc(N3CCCCC3)cc2-c2cc(C(=O)NCc3cccc(C(F)(F)F)c3)ccn2)c1` [Example 43, 2-Methyl-1-(3-((4-(piperidin-1-yl)-2-(4-((3-(trifluoromethyl)benzyl)carbamoyl)pyridin-2-yl)phenyl)carbamoyl)phenyl)-5,8,11-trioxa-2-azatetradecan-14-oic acid] was tested. Which IC50 did it give?
A: 10 to 31.6 µM

Q: For `CN(CCOCCOCCOCCC(=O)O)Cc1cccc(C(=O)Nc2ccc(N3CCCCC3)cc2-c2cc(C(=O)NCc3cccc(C(F)(F)F)c3)ccn2)n1` [Example 54, 2-Methyl-1-(6-((4-(piperidin-1-yl)-2-(4-((3-(trifluoromethyl)benzyl)carbamoyl)pyridin-2-yl)phenyl)carbamoyl)pyridin-2-yl)-5,8,11-trioxa-2-azatetradecan-14-oic acid], which IC50 is on record?
A: 10 to 31.6 µM

Q: Which IC50 does the source give for `CC(=O)N[C@@H]1CCN(Cc2cccc(C(=O)Nc3ccc(N4CCCCC4)cc3-c3cc(C(=O)NCc4cccc(C(F)(F)F)c4)ccn3)n2)C1` [Example 55, (R)-6-((3-Acetamidopyrrolidin-1-yl)methyl)-N-(4-(piperidin-1-yl)-2-(4-((3-(trifluoromethyl)benzyl)carbamoyl)pyridin-2-yl)phenyl)picolinamide 2,2,2-trifluoroacetate] here?
A: 1 to 7.94 µM

Q: Which IC50 does the source give for `CC(=O)N[C@H]1CCN(Cc2cccc(C(=O)Nc3ccc(N4CCCCC4)cc3-c3cc(C(=O)NCc4cccc(C(F)(F)F)c4)ccn3)n2)C1` [Example 56, (S)-6-((3-Acetamidopyrrolidin-1-yl)methyl)-N-(4-(piperidin-1-yl)-2-(4-((3-(trifluoromethyl)benzyl)carbamoyl)pyridin-2-yl)phenyl)picolinamide] here?
A: 10 to 31.6 µM

Q: Which IC50 does the source give for `CC(=O)NC1CCN(Cc2cccc(C(=O)Nc3ccc(N4CCCCC4)cc3-c3cc(C(=O)NCc4cccc(C(F)(F)F)c4)ccn3)n2)CC1` [Example 57, 6-((4-Acetamidopiperidin-1-yl)methyl)-N-(4-(piperidin-1-yl)-2-(4-((3-(trifluoromethyl)benzyl)carbamoyl)pyridin-2-yl)phenyl)picolinamide] here?
A: 10 to 31.6 µM

Q: For `CC(=O)N1CCN(Cc2cccc(C(=O)Nc3ccc(N4CCCCC4)cc3-c3cc(C(=O)NCc4cccc(C(F)(F)F)c4)ccn3)n2)CC1` [Example 58, 6-((4-Acetylpiperazin-1-yl)methyl)-N-(4-(piperidin-1-yl)-2-(4-((3-(trifluoromethyl)benzyl)carbamoyl)pyridin-2-yl)phenyl)picolinamide], which IC50 is on record?
A: 1 to 7.94 µM

Q: How did the IC50 turn out when `CC(=O)N1CCCN(Cc2cccc(C(=O)Nc3ccc(N4CCCCC4)cc3-c3cc(C(=O)NCc4cccc(C(F)(F)F)c4)ccn3)n2)CC1` [Example 59, 6-((4-Acetyl-1,4-diazepan-1-yl)methyl)-N-(4-(piperidin-1-yl)-2-(4-((3-(trifluoromethyl)benzyl)carbamoyl)pyridin-2-yl)phenyl)picolinamide] was run?
A: 1 to 7.94 µM

Q: `CC(=O)N1CCN(CCN(C)Cc2cccc(C(=O)Nc3ccc(N4CCCCC4)cc3-c3cc(C(=O)NCc4cccc(C(F)(F)F)c4)ccn3)n2)CC1` [Example 60, 6-(((2-(4-Acetylpiperazin-1-yl)ethyl)(methyl)amino)methyl)-N-(4-(piperidin-1-yl)-2-(4-((3-(trifluoromethyl)benzyl)carbamoyl)pyridin-2-yl)phenyl)picolinamide] was tested. Which IC50 did it give?
A: 10 to 31.6 µM

Q: Which IC50 does the source give for `CN1CCN(CCN(C)Cc2cccc(C(=O)Nc3ccc(N4CCCCC4)cc3-c3cc(C(=O)NCc4cccc(C(F)(F)F)c4)ccn3)n2)CC1` [Example 61, 6-((Methyl(2-(4-methylpiperazin-1-yl)ethyl)amino)methyl)-N-(4-(piperidin-1-yl)-2-(4-((3-(trifluoromethyl)benzyl)carbamoyl)pyridin-2-yl)phenyl)picolinamide] here?
A: 10 to 31.6 µM

Q: For `CN(CCN1CCN(S(C)(=O)=O)CC1)Cc1cccc(C(=O)Nc2ccc(N3CCCCC3)cc2-c2cc(C(=O)NCc3cccc(C(F)(F)F)c3)ccn2)n1` [Example 62, 6-((Methyl(2-(4-(methylsulfonyl)piperazin-1-yl)ethyl)amino)methyl)-N-(4-(piperidin-1-yl)-2-(4-((3-(trifluoromethyl)benzyl)carbamoyl)pyridin-2-yl)phenyl)picolinamide], which IC50 is on record?
A: 10 to 31.6 µM

Q: Which IC50 does the source give for `COCCNC(=O)N1CCN(CCN(C)Cc2cccc(C(=O)Nc3ccc(N4CCCCC4)cc3-c3cc(C(=O)NCc4cccc(C(F)(F)F)c4)ccn3)n2)CC1` [Example 63, N-(2-Methoxyethyl)-4-(2-(methyl((6-((4-(piperidin-1-yl)-2-(4-((3-(trifluoromethyl)benzyl)carbamoyl)pyridin-2-yl)phenyl)carbamoyl)pyridin-2-yl)methyl)amino)ethyl)piperazine-1-carboxamide] here?
A: 1 to 7.94 µM
